Test results as given in US20220241409A1, “WATER SOLUBLE ADJUVANT AND COMPOSITION CONTAINING SAME” (Sumitomo Dainippon Pharma Co., Ltd., priority 2019, published 2022).

Key:
[1] = test system: HLA-A*02:01 transgenic mouse; experiment: Induction of antigen-specific effector memory CTL, flow cytometry (Test 14); format: in vivo; conditions: twice; for induction of antigen peptide-specific effector memory CTL (CD8+ tetramer+ CD127+ CD62L-): 325 ng per body in vaccine b compared with the vaccine without compound
Description: The activity of a vaccine comprising the compounds prepared in Examples 2 and 3 for inducing effector memory CTL was evaluated through the cell surface antigen expression analysis of CTL by flow cytometry.
Specifically, vaccine a prepared like Test 6 was injected to a HLA-A*02:01 transgenic mouse intradermally at the tail base area in an amount for administering 300 μg of Compound of formula 4 per body and 225 μg of Peptide SEQ ID No. 3 per body. The administrations were done twice, which had one week interval. Or, a vaccine prepared by adding the compound prepared in Example 3 to vaccine a was injected to the mouse intradermally at the tail base area in an amount for administering 300 μg of Compound of formula 4 per body, 225 μg of Peptide SEQ ID No. 3 per body, and 32.5 ng of the compound prepared in Example 3 per body. The administrations were done twice, which had one week interval. Or, vaccine b prepared like Test 8 was injected to the mouse intradermally at the tail base area in an amount for administering 300 μg of Compound of formula 4 per body and 225 μg of Peptide SEQ ID No. 3 per body. Or a vaccine prepared by adding the compound prepared in Example 3 to vaccine b was injected to the mouse intradermally at the tail base area in an amount for administering 300 μg of Compound of formula 4 per body, 225 μg of Peptide SEQ ID No. 3 per body, and 325 ng of the compound prepared in Example 3 per body. Or a vaccine prepared by adding the compound prepared in Example 2 to vaccine b was injected to the mouse intradermally at the tail base area in an amount for administering 300 μg of Compound of formula 4 per body, 225 μg of Peptide SEQ ID No. 3 per body, and 325 ng of the compound prepared in Example 2 per body. […] 1, a PE-Cy7-labeled anti-CD127 antibody, and a PerCP-Cy5.5-labeled anti-CD62L antibody, and analyzed for peptide-specific effector memory CTLs with a flow cytometer. The ratio of CD8-positive tetramer-positive CD127-positive CD62L-negative fraction in the lymphocyte fraction was calculated as peptide-specific effector memory CTL.

[2] = test system: MCA-A24/Kb-WT1 tumor cells; experiment: In vivo suppression of tumor growth by vaccine (Test 15); conditions: 27th day after transplantation, HLA-A*24:02 transgenic mouse, vaccination 7 days before and after transplantation; versus vehicle (group a); group b p<0.05, group c (100 ng Example 2 per body) p<0.01
Description: The HLA-A*24:02 transgenic mouse (C57BL/6CrHLA-A24/Kb) used herein is a mouse expressing a chimeric HLA (HLA-A*2402/Kb) of a human MHC (HLA-A*24:02) and a mouse MHC (H-2Kb) (Int. J. Cancer 2002; 100: 565-570). The mouse can induce […] CTLs with a peptide which can bind to human HLA-A*24:02.
A suspension of 3-methylcholanthrene in corn oil was administered to a HLA-A*24:02 transgenic mouse intradermally at the ventral region. From the tumor generated at the administration site, HLA-A*2402/Kb-expressing tumor cells were obtained. Cell lines established by stably expressing WT1 antigen peptide (SEQ ID No. 2) in the cells (herein, also referred to as MCA-A24/Kb-WT1 tumor cells) were suspended in Hanks' Balanced Salt Solution and intradermally transplanted to the ventral region of HLA-A*24:02 transgenic mouse (5×10^5 cells per mouse). The mice made to receive a vehicle (Group a), a vaccine (Group b), or a vaccine containing the compound prepared in Example 2 (Group c) were classified. Six mice per group were used. […] The tumor size was measured 27 days after the tumor transplantation and the tumor volume was calculated.

mouse splenocyte = experiment: Activation of immune cells, mouse splenocyte cytokine/chemokine production (Test 5); format: cell-based; conditions: 200 nmol/L, one day, compared with only DMSO
Description: Splenocyte was derived from the spleen of a HLA-A*02:01 transgenic mouse, and cryopreserved. Cryopreserved mouse splenocyte was reconstituted, suspended in RPMI 1640 medium with 10% FBS, and seeded on a U-bottom 96 well plate at 4×10^5 cells/well. The compound prepared in Example 3 was added in the presence of 0.1% (v/v) DMSO to the wells at a final concentration of 200 nmol/L. The plate was incubated at 37° C. under an atmosphere of 5% CO2. One day after the incubation, the culture supernatant was collected. The concentration of cytokine and chemokine (GM-CSF, IFNγ, IL-6, IP-10, MCP-1, MIP-1α, MIP-1β, Rantes, and TNFα) which were included in each culture supernatant was measured with Milliplex Mouse Cytokine/Chemokine Magnetic Bead Panel kit and Luminex system in accordance with the manufacturer's protocol.
The results are shown in FIG. 3-A to FIG. 3-I. The white bar indicates the mean number of the concentration of cytokine and chemokine in the culture supernatant from three wells to which only DMSO was added, and the black bar indicates the mean number of the concentration of cytokine and chemokine in the culture supernatant from three wells to which the compound prepared in Example 3 was added. The compound prepared in Example 3 made the yield of cytokine and chemokine higher, compared with the case of only DMSO.

| Compound | induction of antigen peptide-specific effector memory CTL (CD8+ tetramer+ CD127+ CD62L-) [1] | growth of tumor cells (average tumor volume) [2] | yield of cytokine and chemokine (GM-CSF, IFNγ, IL-6, IP-10, MCP-1, MIP-1α, MIP-1β, Rantes, TNFα) (mouse splenocyte) | induction of peptide-specific effector memory CTL (CD8+ tetramer+ CD127+ CD62L-) ([1]; 32.5 ng per body in vaccine a compared with vaccine a) |
| --- | --- | --- | --- | --- |
| CCCCOc1nc(N)c2[nH]c(=O)n(Cc3ccc(CN(C)CCOCCOCCOCCOCCO)nc3)c2n1 [Example 2, 6-amino-2-butoxy-9-{[6-(16-hydroxy-2-methyl-5,8,11,14-tetraoxa-2-azahexadecan-1-yl)pyridin-3-yl]methyl}-7,9-dihydro-8H-purin-8-one-trifluoroacetate] | high frequency | more potently suppressed | – | – |
| CCCCOc1nc(N)c2[nH]c(=O)n(Cc3ccc(CN(C)CCOCCOCCOCCOCCO)cc3)c2n1 [Example 3, 6-amino-2-butoxy-9-{[4-(16-hydroxy-2-methyl-5,8,11,14-tetraoxa-2-azahexadecan-1-yl)phenyl]methyl}-7,9-dihydro-8H-purin-8-one] | high frequency | – | higher | high frequency |
